Experimental data reported in patent US20230085362A1, “PYRIMIDINE COMPOUNDS AND USE THEREOF” (National Health Research Institutes, priority 2021, published 2023).

Experiments:
Primary DRG cells [1] = assay: Neurite outgrowth assay (group A), paclitaxel-induced neurotoxicity; type: cell-based, C57BL/6 J mice; settings: for neuroprotection against paclitaxel-induced neurotoxicity: 1 µM compound, 0.05 µM paclitaxel; for activity at 1 µM: Mus musculus, DRG cells, 1 µM compound 24 h then 0.05 µM paclitaxel 24 h, % of untreated control, read-out: Neurite outgrowth (%); for Neurite outgrowth (%) A-B (extent of protection): difference between compound 1 µM + paclitaxel 0.05 µM and paclitaxel 0.05 µM alone
Procedure: Compounds of this invention were evaluated using the neurite outgrowth assay as described in Chen et al., Scientific Reports, 7, 45366, DOI: 10.1038/srep45366 (2017).
(§1) Cell culture. For primary culture, dorsal root ganglia (“DRG”) were removed from 7-weeks-old C57BL/6 J mice and digested with 0.1% collagenase (Sigma-Aldrich, St. Louis, MO) for 1 hour, followed by 0.25% trypsin treatment for 25 minutes. The dissociated neuron cultures were plated at a density of 2.5×10^4 cells per well in a 96 well optics plates (CLS3614; Sigma-Aldrich) precoated with 1 mg/mL poly-D-lysine (A-003-M; Sigma-Aldrich) for 3 hours. Primary DRG cells were grown in DMEM-F12 (11320033; Gibco®, ThermoFisher Scientific, Waltham, MA) supplemented with 10% fetal bovine serum (FBS, 26140079; Gibco®, ThermoFisher). These cells were maintained at 37° C. in an environment containing 5% CO2.
(§2) Neurite outgrowth assay (group A). Primary DRG cells were incubated with one of the Example 2 compounds at 1 µM for 24 hours, and then treated with 0.05 µM paclitaxel for another 24 hours. After the paclitaxel treatment, the primary DRG cells were washed by PBS and then fixed with 4% paraformaldehyde (PFA, P6148; Sigma-Aldrich) for 15 minutes. The DRG cells thus fixed were permeabilized by 0.05% Triton X-100 in PBS for 20 minutes and blocked with 3% bovine serum albumin (BSA; Sigma-Aldrich, USA) at room temperature for 1 hour. Subsequently, DRG cells were stained with rabbit anti-β III tubulin (1:600; Cell Signaling, USA) and mouse anti-NeuN monoclonal antibody (1:400; Millipore, USA) overnight at 4° C. The samples were then washed by PBS and reacted with secondary antibodies (Alexa-488 and Alexa-594 1:600; Invitrogen, CA) at room temperature for 1 hour. For image acquisition and analysis of DRG neurite outgrowth, images of stained cells were automatically acquired using 10X objective by Image Xpress Micro wide field fluorescent microscope (Molecular Devices, USA). A control was obtained following the same procedure except that the DRG cells were not treated with a compound or paclitaxel. Neurite outgrowth was measured as a percentage of outgrowth as compared to the control.
The difference between A and B indicates an extent of protection provided by the compound.

Primary DRG cells [2] = assay: Neurite outgrowth assay (group B), oxaliplatin-induced neurotoxicity; type: cell-based, C57BL/6 J mice; settings: for neuroprotection against oxaliplatin-induced neurotoxicity: 1 µM compound, 100 µM oxaliplatin; for Neurite outgrowth (%): DRG cells, 1 µM compound 24 h then 100 µM oxaliplatin 48 h, % of untreated control; for Neurite outgrowth (%) A-B: difference between compound 1 µM + oxaliplatin 100 µM and oxaliplatin 100 µM alone
Procedure: as §1, §2
Neurite outgrowth assay (group B). Primary DRG cells were incubated with compounds 17, 47, 97, 98, 101, 104 at 1 µM for 24 hours, and then treated with 100 µM oxaliplatin for another 48 hours. The treatment was obtained following the same procedure as group A except that the DRG cells were treated with a oxaliplatin. Neurite outgrowth was measured as a percentage of outgrowth as compared to the control.

[3] = system: paclitaxel-induced neuropathy; settings: 5 mg/kg i.p. one hour before paclitaxel 4.5 mg/kg i.p., days 0, 2, 4, 6
Procedure: Compound 47 was used in an in vivo mouse behavioral study for treating paclitaxel-induced neuropathy following a procedure described in Chen et al., Scientific Reports, 7, 45366, DOI: 10.1038/srep45366 (2017).
After housing adaptions, 7-weeks-old C57BL/6J female mice (weight range: 18-20 g) were treated as follows. Paclitaxel (4.5 mg/kg, Bristol-Myers Squibb, New York, New York), vehicle (saline), or Compound 47 (5, 10 or 20 mg/kg) was injected intraperitoneally on four alternative days (days 0, 2, 4, and 6). Two behavior tests were performed: (1) mechanical hyperalgesia was evaluated using a von Frey filament (Part #2390, IITC Inc., CA) and (2) thermal sensitivity was studied using a tail immersion assay (water temperature: 48-49° C.). See Chen et al., Mol. Cancer. Ther. 14, 2206-14 (2015). The baseline measurement of each behavior test was established prior to treatments. Five sessions were measured weekly.
The neuroprotective effects of Compound 47 in a mouse model was measured following a protocol with predetermined drug administration and behavioral tests. The basal levels of each behavioral assay were obtained prior to the treatment. […]
A von Frey filament test was performed to detect allodynia. […] Thermal sensation was assessed using a tail immersion test by checking tail withdrawal latency. […]

Row | SMILES | neuroprotection against paclitaxel-induced neurotoxicity (Primary DRG cells [1]) | activity at 1 µM (Primary DRG cells [1]) [%] | Neurite outgrowth (%) A-B (extent of protection) (Primary DRG cells [1]) [%] | neuroprotection against oxaliplatin-induced neurotoxicity (Primary DRG cells [2]) | Neurite outgrowth (%) (Primary DRG cells [2]) | Neurite outgrowth (%) A-B (Primary DRG cells [2]) [%] | improvement of neurite outgrowth (Primary DRG cells [1]; 1 µM compound vs 0.05 µM paclitaxel treated cells) | improvement of neurite outgrowth (Primary DRG cells [2]; 1 µM compound vs 100 µM oxaliplatin treated cells) | pain threshold (von Frey) [3]
1 | CCn1nnc(CNc2nc(NC3CCN(CCC(=O)O)CC3)cc(N3CCOCC3)n2)n1 [Compound 101] | neuroprotection was provided | 53 | 6 | neuroprotection was provided | 31 | 2 | – | – | –
2 | CC(C)NCCCn1cc(CNc2nc(NC3CCN(Cc4ccccc4)CC3)cc(N3CCOCC3)n2)nn1 [Compound 17] | neuroprotection was provided | 50 | 3 | – | 26 | -3 | – | – | –
3 | CCn1nnnc1CNc1nc(N2CCOCC2)cc(N2CCOCC2)n1 [Compound 97] | neuroprotection was provided | 45 | 5 | neuroprotection was provided | 31 | 2 | – | – | –
4 | CCn1nnc(CNc2nc(N3CCOCC3)cc(N3CCOCC3)n2)n1 [Compound 98] | neuroprotection was provided | 45 | 5 | – | 26 | -3 | – | – | –
5 | OCCCc1cc(CNc2nc(NC3CCNCC3)cc(N3CCOCC3)n2)no1 [Compound 104] | neuroprotection was provided | 45 | 5 | neuroprotection was provided | 34 | 5 | – | – | –
6 | O=P(O)(O)CCN1CCC(Nc2cc(N3CCOCC3)nc(NCc3cn(CCCO)nn3)n2)CC1 [Compound 47] | neuroprotection was provided | 65 | 18 | neuroprotection was provided | 47 | 7 | more than 18% | more than 7% | provided protection
